# Measured values published in ChEMBL document CHEMBL1201862, “PubChem BioAssay data set” (2004).
# Active and inactive are the calls of the source.
# Tests used:
# [1] = target: Muscarinic acetylcholine receptor M5 (Homo sapiens, UniProt P08912); test: M5 muscarinic receptor antagonist potency, dose response, cell-based, CHO-K1 hM5, Fluo-4 calcium flux, ACh EC80 (AID 743110); format: functional
# Kallikrein-7 = Kallikrein-7 (Homo sapiens, UniProt P49862); test: Fluorescence Intensity-based biochemical primary high throughput dose response assay to identify activators of kallikrein-7 (K7) zymogen.
# Kallikrein-7, sequence (P49862 whole entry): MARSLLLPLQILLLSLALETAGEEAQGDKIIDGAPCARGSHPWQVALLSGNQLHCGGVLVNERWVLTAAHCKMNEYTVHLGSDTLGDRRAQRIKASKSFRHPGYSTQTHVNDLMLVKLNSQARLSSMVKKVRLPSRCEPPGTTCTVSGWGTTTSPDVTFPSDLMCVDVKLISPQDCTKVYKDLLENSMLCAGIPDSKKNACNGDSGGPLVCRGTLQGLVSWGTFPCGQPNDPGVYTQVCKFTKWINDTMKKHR
# [2] = TRPM1 promoter luciferase reporter signal decrease, dose response, MITF inhibitor project, cell-based, SK-MEL-5, dry powder, set 9 (AID 651588); format: functional
# [3] = A375 melanoma cell viability loss, dose response, counter-screen for MITF inhibitor project, CellTiter-Glo luminescence, dry powder, set 4 (AID 624364); format: functional, cell-based; conditions: A-375;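 note: A375 melanoma cells are MITF independent so this is a counter screen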
# [4] = A375 melanoma cell cytotoxicity, dose response, counter-screen for MITF inhibitor project, CellTiter-Glo luminescence, dry powder, set 7 (AID 624490); format: functional, cell-based; conditions: A-375
# [5] = MITF Orthogonal Assay: MALME3 CTG Assay Measured in Cell-Based System Using Plate Reader - 2084-04_Inhibitor_Dose_DryPowder_Activity_Set6.; format: functional; conditions: MALME-3
# [6] = SK-MEL-5 parental cell viability reduction, dose response, orthogonal assay for MITF inhibitor project, CellTiter-Glo luminescence, dry powder, set 8 (AID 651586); format: functional, cell-based
# [7] = MALME3 melanoma cell viability reduction, dose response, orthogonal assay for MITF inhibitor project, CellTiter-Glo luminescence, dry powder, set 5 (AID 651584); format: functional, cell-based; conditions: MALME-3
# [8] = SK-MEL-5 parental line viability, dose response, MITF inhibitor project, cell-based, CellTiter-Glo, dry powder, set 6 (AID 624429); format: functional
# [9] = MITF Orthogonal Assay: SK-MEL-5 CTG Assay Measured in Cell-Based System Using Plate Reader - 2084-02_Inhibitor_Dose_DryPowder_Activity_Set5.; format: functional
# [10] = MITF Measured in Cell-Based System Using Plate Reader - 2084-01_Inhibitor_Dose_DryPowder_Activity_Set6.; format: functional
# [11] = MITF Measured in Cell-Based System Using Plate Reader - 2084-01_Inhibitor_Dose_DryPowder_Activity_Set7.; format: functional
# [12] = cytotoxicity in primary human melanocytes, dose response, cytotoxicity control, cell-based, plate reader, dry powder (AID 651920); format: functional
# [13] = HeLa 2N DNA content increase, dose response, cell-based, IC50 (AID 1117349); format: functional
# [14] = cytotoxicity toward HCT116 cells – cell-based, CellTiter-Glo luminescence, IC50, dose response (AID 1117332); format: functional; conditions: HCT-116
# [15] = SNU-C1 cell viability reduction, dose response, CellTiter-Glo luminescence (AID 1117323); format: functional, cell-based
# [16] = HeLa 4N DNA content increase, dose response, cell-based, IC50 (AID 1117351); format: functional
# [17] = cytotoxicity toward HT-29 cells – cell-based, CellTiter-Glo luminescence, IC50, dose response (AID 1117330); format: functional
# [18] = CellTiter-Glo luminescent dose response of DLD-1 viability loss (AID 1117352); format: functional
# [19] = HCT116 cell viability decrease, GSK3B pretreatment – CellTiter-Glo, IC50, dose response (AID 1117339); format: functional; conditions: HCT-116
# Paired box protein Pax-8 = Paired box protein Pax-8 (Homo sapiens, UniProt Q06710); test: inhibitors of PAX8-driven TPO luciferase reporter, dose response, RMG-I cells, cherry-pick (AID 687027); format: functional, cell-based;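 note: luciferase reporter driven by Pax8 target thyroperoxidase promoter measured by SteadyGlo luminescence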
# Paired box protein Pax-8, sequence (Q06710 whole entry): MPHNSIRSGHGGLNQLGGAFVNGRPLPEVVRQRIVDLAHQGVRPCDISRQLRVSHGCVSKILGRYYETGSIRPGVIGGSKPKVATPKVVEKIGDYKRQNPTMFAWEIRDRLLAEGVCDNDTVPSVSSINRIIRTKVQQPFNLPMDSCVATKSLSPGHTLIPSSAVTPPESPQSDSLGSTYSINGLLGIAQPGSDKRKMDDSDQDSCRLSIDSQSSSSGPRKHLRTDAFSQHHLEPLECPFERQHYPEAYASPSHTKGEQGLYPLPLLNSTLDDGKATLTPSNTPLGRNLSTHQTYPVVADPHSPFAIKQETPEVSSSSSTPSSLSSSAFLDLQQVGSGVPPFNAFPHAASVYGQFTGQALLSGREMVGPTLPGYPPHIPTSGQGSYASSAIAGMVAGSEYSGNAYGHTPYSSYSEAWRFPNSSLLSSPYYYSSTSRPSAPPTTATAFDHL
# [20] = PAX2 cell-based inhibition, dose response, selectivity assay for PAX8 inhibitor project, plate reader, dry powder samples (AID 743048); format: functional;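 note: HEK293 cells carrying a WT1 promoter luciferase reporter driven by expressed Pax2; potency is for inhibition of Pax2 driven reporter signal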
# [21] = PAX5 activity inhibitors, dose response, selectivity assay for PAX8 inhibitor project, cell-based, plate reader, dry powder samples (AID 743047); format: functional;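 note: HEK293 cells carrying a Pax5 driven CD19 promoter luciferase reporter; potency of inhibitors that lower reporter luminescence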
# [22] = cytotoxicity in OVCAR4 cells, dose response, cytotoxicity control for PAX8 inhibitor project, cell-based, plate reader, dry powder, SA11 (AID 743150); format: functional; conditions: OVCAR-4
# [23] = cytotoxicity in OV-90 ovarian cancer cells, dose response, PAX8 inhibitor project, cell-based, plate reader, dry powder, SA8 (AID 743149); format: functional
# [24] = cytotoxicity dependent on PAX8, dose response, cell-based, plate reader, dry powder (AID 743049); format: functional
# [25] = system: Streptococcus sp. 'group A'; test: growth inhibition of control SK(-) GAS strain, dose response, counter-screen for streptokinase expression inhibitor project, luminescence, kanamycin, BacTiterGlo, confirmation (AID 1900); format: functional, organism-based
# Streptokinase A = target: T1, Streptokinase A (Streptococcus pyogenes serotype M1, UniProt P10520); test: S. pyogenes streptokinase expression inhibitors, potency, dose response, plasminogen activation absorbance, OD405 (AID 1914); format: functional, Streptococcus pyogenes M1 GAS;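 note: secreted streptokinase activity via plasminogen activation per viability signal from cell pellet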
# T1 sequence (P10520 whole entry): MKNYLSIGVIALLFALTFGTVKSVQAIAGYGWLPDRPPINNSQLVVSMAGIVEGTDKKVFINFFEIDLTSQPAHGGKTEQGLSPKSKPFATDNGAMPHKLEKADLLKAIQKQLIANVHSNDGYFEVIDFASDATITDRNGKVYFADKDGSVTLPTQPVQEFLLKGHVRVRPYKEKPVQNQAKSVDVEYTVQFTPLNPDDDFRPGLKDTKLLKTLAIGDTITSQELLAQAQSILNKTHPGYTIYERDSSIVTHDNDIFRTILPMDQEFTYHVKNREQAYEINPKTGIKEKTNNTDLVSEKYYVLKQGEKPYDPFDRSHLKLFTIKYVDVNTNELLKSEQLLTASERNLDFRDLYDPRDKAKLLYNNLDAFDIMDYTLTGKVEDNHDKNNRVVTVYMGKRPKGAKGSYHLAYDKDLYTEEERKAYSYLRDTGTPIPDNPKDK
# Streptococcus = test: Group A Streptococcus viability loss, dose response, counter-screen for streptokinase expression inhibitor project, luminescence, BacTiterGlo (AID 1915); format: functional, organism-based;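 note: potency for reduction of bacterial viability or growth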
# cells = conditions: HEK293
# Muscarinic acetylcholine receptor M5, sequence (P08912 whole entry): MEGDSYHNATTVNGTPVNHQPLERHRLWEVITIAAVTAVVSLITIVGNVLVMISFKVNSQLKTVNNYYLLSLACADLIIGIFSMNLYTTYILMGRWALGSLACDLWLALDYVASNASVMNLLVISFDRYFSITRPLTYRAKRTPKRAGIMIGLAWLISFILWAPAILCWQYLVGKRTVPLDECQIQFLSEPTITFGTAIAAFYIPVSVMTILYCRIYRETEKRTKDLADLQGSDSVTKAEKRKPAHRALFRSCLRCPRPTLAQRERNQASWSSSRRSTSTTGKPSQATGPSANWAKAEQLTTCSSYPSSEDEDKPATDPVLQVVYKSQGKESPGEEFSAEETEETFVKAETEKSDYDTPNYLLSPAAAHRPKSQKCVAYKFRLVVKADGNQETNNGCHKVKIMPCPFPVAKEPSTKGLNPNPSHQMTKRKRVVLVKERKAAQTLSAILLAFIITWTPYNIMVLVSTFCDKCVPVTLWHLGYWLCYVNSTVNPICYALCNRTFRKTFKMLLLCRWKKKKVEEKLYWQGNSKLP
smiles,measurement,setting,value
COC(=O)c1cccc(OCc2cc(C(=O)N(C)C(C)c3ccccn3)no2)c1 (stereo not given),IC50,[1],11.1 µM (active)
CN1CCSc2ccc(C(=O)NCc3cccc(F)c3)cc21,EC50,Kallikrein-7,> 69.5 µM (inactive)
O=C1C=C(NS(=O)(=O)c2ccc(Br)cc2)C(=O)c2ccccc21,AC50,[2],18.8 µM (active)
same,AC50,[3],> 70 µM (inactive)
same,AC50,[4],> 70 µM (inactive)
same,AC50,[5],24.4 µM (active)
same,AC50,[6],11.8 µM (active)
same,AC50,[7],24.4 µM (active)
same,AC50,[8],11.2 µM (active)
same,AC50,[9],13.1 µM (active)
same,AC50,[10],6.37 µM (active)
same,AC50,[11],7.45 µM (active)
same,AC50,[12],14.5 µM (active)
O=Cc1ccc(O)c(O)c1O,IC50,[13],> 10 µM (inactive)
same,IC50,[14],> 20 µM (inactive)
same,IC50,[15],> 20 µM (inactive)
same,IC50,[16],> 10 µM (inactive)
same,IC50,[17],> 20 µM (inactive)
same,IC50,[18],> 20 µM (inactive)
same,IC50,[19],0.141 µM (active)
COc1cccc(-c2ccc([C@H]3[C@@H](CO)N(C(=O)Cc4ccccc4)[C@H]3C#N)cc2)c1,AC50,Paired box protein Pax-8,19.5 µM (active)
same,AC50,[20],34.4 µM (active)
same,AC50,[21],6.07 µM (active)
same,AC50,[22],10.8 µM (active)
same,AC50,[23],> 70 µM (inactive)
same,AC50,[24],25.5 µM (active)
CC(C)(C)[C@H]1CCC(=O)N([C@H](CSc2ccccc2)Cc2ccccc2)CC1,EC50,[25],7.1 µM (active)
same,EC50,Streptokinase A,23.2 µM (active)
same,EC50,Streptococcus,10.3 µM (active)
same,AC50,cells,> 52 µM (inactive)
